Reference: ChEMBL document CHEMBL1201862, “PubChem BioAssay data set” (2004)
Activity calls are given as the source filed them. For most assays here, no stated cut-off is given here; in the data, actives have a measured EC50 and inactives only a lower limit.

What was measured:
[1] = Luminescence Cell-Based Dose Response HTS to Identify Inhibitors of 5'UTR Stem-Loop Driven Prion Protein mRNA Translation in H4 Neuroglioblastoma Cells. [Related pubchem assays: 1827 (Project Summary), 1813 (Primary HTS)]; type: functional
[2] = luciferase reporter signal suppression in cells – H4 neuroglioma cells, luminescence, dose response (AID 1990); type: functional, cell-based
[3] = alpha-synuclein stem-loop luciferase translation blockers – H4 neuroglioma cells, luminescence, confirmation (AID 1988); type: functional, cell-based
[4] = NIH-3T3 fibroblast cytotoxicity, dose response, cytotoxicity control, cell-based, fluorescence, Alamar Blue, secondary assay (AID 2327); type: functional;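 further: NIH-3T3 mouse fibroblasts cultured with fluconazole at 8 µg/mL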
[5] = Luminescence Cell-Based Dose Retest to Confirm Inhibitors of Cancer Stem Cells. [Related pubchem assays (depositor defined):AID2717, AID2721]; type: functional; conditions: Homo sapiens
[6] = target: T1, Corticotropin-releasing factor receptor 2/Corticotropin-releasing factor-binding protein (Homo sapiens, UniProt P24387+Q13324); test: Dose Response confirmation of uHTS hits for small molecule antagonists of the CRF-binding protein and CRF-R2 receptor complex.; type: functional; conditions: read-out: IC50_Mean
T1 sequence (Q13324 whole entry): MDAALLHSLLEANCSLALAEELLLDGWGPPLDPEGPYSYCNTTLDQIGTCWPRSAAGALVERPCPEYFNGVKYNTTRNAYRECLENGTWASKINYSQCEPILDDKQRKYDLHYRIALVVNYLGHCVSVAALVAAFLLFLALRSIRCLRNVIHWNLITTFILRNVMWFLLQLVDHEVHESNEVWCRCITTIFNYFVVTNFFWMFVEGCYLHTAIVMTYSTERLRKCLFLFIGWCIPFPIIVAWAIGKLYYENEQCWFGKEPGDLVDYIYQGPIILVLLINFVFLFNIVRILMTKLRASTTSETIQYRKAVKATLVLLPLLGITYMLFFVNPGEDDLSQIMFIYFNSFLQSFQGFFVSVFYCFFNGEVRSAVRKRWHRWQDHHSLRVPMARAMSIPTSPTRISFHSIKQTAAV
T1 sequence (P24387 whole entry): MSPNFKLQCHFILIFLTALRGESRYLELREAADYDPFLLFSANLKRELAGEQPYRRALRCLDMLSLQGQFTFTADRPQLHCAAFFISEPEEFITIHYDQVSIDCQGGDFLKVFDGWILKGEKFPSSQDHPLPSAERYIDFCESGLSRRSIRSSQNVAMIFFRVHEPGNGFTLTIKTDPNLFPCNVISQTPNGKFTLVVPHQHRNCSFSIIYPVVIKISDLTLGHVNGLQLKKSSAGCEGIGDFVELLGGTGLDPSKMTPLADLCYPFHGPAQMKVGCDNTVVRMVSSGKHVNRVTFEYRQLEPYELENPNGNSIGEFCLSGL

[7] = target: T1, Corticotropin-releasing factor receptor 2/Corticotropin-releasing factor-binding protein; test: activators of CRF receptor 2 with binding protein – uHTS hits, confirmation (AID 602473); type: functional; conditions: read-out: EC50_Mean
[8] = Luminescence Cell-Based Dose Confirmation HTS to Identify Inhibitors of Platelet Dense Granule Release. [Related pubchem assays: 1663 (Primary HTS), 1678 (Summary of Project)]; type: functional
[9] = target: Luciferin 4-monooxygenase (Photinus pyralis, UniProt P08659); test: inhibition of purified Photinus pyralis luciferase – biochemical, luminescence, dose response (AID 1891)
[10] = target: T2, Ubiquitin-conjugating enzyme E2 N (Homo sapiens, UniProt P61088); type: functional;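 further: Dose-response confirmation in a TR-FRET assay detecting UBC13-driven polyubiquitin chain formation, inhibition measured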
T2 sequence (P61088 whole entry): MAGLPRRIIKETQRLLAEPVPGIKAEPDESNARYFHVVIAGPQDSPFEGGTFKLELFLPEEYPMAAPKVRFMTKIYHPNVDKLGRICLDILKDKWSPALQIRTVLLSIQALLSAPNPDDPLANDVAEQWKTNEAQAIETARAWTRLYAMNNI

[11] = NIH3T3 cell viability loss – ATP luminescence, mouse fibroblasts, counter-screen, dose response (AID 2010); type: functional, cell-based;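 further: cells exposed to compound for about 90 hours before reading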
[12] = Trypanosoma cruzi growth suppression in host cells – NIH3T3 host cells, beta-gal luminescence, confirmation (AID 2044); type: functional, cell-based;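 further: intracellular parasites grown in NIH/3T3 mouse fibroblasts as host cells; luminescent beta-galactosidase reporter signal from transgenic T. cruzi replicating inside host cells; inhibitors lower the luminescence signal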
[13] = fluconazole-exposed Candida albicans growth modulators – fluorescence, retest, confirmation (AID 2467); type: functional, cell-based
Cytochrome P450 1A2 = target: T3, Cytochrome P450 1A2 (Homo sapiens, UniProt P05177);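 further: PubChem cytochrome P450 panel assay, CYP1A2 panel member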
T3 sequence (P05177 whole entry): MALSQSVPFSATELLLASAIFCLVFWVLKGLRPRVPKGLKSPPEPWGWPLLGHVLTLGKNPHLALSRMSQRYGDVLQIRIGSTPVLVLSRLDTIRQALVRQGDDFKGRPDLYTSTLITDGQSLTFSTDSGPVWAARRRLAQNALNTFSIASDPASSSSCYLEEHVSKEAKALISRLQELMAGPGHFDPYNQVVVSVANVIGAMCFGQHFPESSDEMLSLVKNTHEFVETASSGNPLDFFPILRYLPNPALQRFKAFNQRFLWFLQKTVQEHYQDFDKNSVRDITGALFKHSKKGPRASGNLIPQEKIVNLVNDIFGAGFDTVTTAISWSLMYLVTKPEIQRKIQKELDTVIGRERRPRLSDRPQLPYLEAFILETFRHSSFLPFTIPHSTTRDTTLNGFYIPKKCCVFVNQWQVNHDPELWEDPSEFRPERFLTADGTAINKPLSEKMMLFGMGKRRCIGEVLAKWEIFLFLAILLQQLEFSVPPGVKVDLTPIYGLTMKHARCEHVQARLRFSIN

Cytochrome P450 2D6 = Cytochrome P450 2D6 (Homo sapiens, UniProt P10635);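 further: CYP2D6 member of a cytochrome P450 panel assay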
Cytochrome P450 2D6, sequence (P10635 whole entry): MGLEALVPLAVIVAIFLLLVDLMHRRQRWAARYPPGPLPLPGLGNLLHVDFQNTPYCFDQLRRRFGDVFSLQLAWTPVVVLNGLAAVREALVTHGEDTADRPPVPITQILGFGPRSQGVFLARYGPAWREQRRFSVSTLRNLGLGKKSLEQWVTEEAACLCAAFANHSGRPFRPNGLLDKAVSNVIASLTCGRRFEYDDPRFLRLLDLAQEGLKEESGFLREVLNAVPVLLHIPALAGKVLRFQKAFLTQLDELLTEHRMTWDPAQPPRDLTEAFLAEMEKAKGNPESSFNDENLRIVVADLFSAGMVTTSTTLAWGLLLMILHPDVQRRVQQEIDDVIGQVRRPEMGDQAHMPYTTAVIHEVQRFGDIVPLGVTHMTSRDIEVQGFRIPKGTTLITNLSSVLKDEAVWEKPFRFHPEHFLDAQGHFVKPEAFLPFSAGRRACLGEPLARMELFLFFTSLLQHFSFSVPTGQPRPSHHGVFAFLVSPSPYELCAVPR

Luciferin 4-monooxygenase, sequence (P08659 whole entry): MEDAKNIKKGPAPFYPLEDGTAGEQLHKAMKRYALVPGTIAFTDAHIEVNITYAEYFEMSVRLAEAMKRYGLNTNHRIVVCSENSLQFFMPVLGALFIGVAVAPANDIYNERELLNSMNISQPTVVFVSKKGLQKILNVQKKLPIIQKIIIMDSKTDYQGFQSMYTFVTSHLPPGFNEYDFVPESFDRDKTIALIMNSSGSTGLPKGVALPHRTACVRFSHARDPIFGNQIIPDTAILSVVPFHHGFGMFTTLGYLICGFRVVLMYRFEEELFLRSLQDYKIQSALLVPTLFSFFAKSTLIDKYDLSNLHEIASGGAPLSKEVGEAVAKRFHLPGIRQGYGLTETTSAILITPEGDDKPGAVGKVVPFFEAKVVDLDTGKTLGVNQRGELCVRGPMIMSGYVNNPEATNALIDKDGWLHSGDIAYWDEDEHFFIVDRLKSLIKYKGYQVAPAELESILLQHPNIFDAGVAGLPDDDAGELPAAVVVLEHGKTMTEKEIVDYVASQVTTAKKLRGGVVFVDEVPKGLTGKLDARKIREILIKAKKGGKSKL

With `COc1ccc(Cc2nnc(Nc3ccc(C)cc3)o2)cc1OC` the EC50 [1] was > 120 µM (not active), the EC50 [2] was > 120 µM (not active) and the EC50 [3] was 11.5 µM (active).

In the case of `Cc1cc(O)c(/C=N/Nc2ccc(F)cc2)c(=O)o1`, the EC50 [4] is reported as 9.97 µM (active).

For `O=[N+]([O-])c1ccc(Cl)c(/C=N/n2c(S)nnc2C2CCCCC2)c1`, the AC50 [5] was 36.1 µM (active).

In the case of `Cc1c(NC2=C(Cl)C(=O)N(c3ccccc3Cl)C2=O)c(=O)n(-c2ccccc2)n1C`, the IC50 [6] is reported as > 47.1 µM (inactive) and the EC50 [7] is reported as > 53 µM (inactive).

With `COc1ccccc1NC(=O)Cc1c(F)cccc1Cl` the EC50 [8] was 70.8 µM (active) and the EC50 [9] was > 112 µM (not active).

In the case of `CCOC(=O)C1CCN(C(=O)Cn2nc(C)n3c(cc4cc(F)ccc43)c2=O)CC1`, the EC50 [8] is reported as 15.8 µM (active) and the EC50 [9] is reported as > 112 µM (not active).

In the case of `CCCCc1ccc(/C=C(\C#N)C(N)=S)s1`, the IC50 [10] is reported as > 20 µM (inactive).

In the case of `COc1ccc(Br)cc1/C=N/n1c(C)nnc1C`, the EC50 [8] is reported as > 112 µM (not active) and the EC50 [9] is reported as > 112 µM (not active).

With `CCNc1nc(Oc2ccc(C#N)cc2)cc(C(F)(F)F)n1` the EC50 [1] was 16.8 µM (active), the EC50 [2] was 5.99 µM (active) and the EC50 [3] was 11.7 µM (active).

In the case of `COc1cccc(CN(C)C(=O)c2cccc(S(=O)(=O)N3CCN(c4ccccc4)CC3)c2)c1OC`, the IC50 [6] is reported as > 47.1 µM (inactive) and the EC50 [7] is reported as > 53 µM (inactive).

With `CC(C)(C)n1nc(-c2ccc(F)cc2)c2c(N)ncnc21` the EC50 [11] was 7.86 µM (active), the EC50 [12] was 0.316 µM (active) and the EC50 [2] was 8.68 µM (active). For the same molecule, the EC50 [3] was 20 µM (active).

In the case of `COc1ccc(-c2cc(C)no2)cc1S(=O)(=O)N(C)c1cccc(C)c1`, the EC50 [4] is reported as > 160 µM (inactive) and the EC50 [13] is reported as > 38 µM (not active).

For `O=C(NNc1ccc(Cl)cc1)c1cccs1`, the EC50 [4] was 2.56 µM (inconclusive), the AC50 [5] was 1.14 µM (active) and the EC50 [13] was > 38 µM (not active).

With `Cc1nc(N)sc1C(=O)NN` the IC50 [10] was > 20 µM (inactive).

For `CC(c1ccccc1)N1CCn2c(nc3cc(NS(C)(=O)=O)ccc32)C1` (centres undefined), the EC50 [4] was > 160 µM (inconclusive) and the EC50 [13] was > 38 µM (not active).

With `N#CCC(=O)N/N=C/c1cn(Cc2cccc3ccccc23)c2ccccc12` the EC50 [1] was > 120 µM (not active), the EC50 [2] was 14.9 µM (active) and the EC50 [3] was 8.59 µM (active).

In the case of `COc1cccc(-c2nc3ccc(O)cc3c(=O)o2)c1`, the EC50 [8] is reported as 9.19 µM (active) and the EC50 [9] is reported as 5.39 µM (active).

For `COc1cccc(NC(=S)C(C#N)=C2N(C)c3ccccc3N2C)c1`, the IC50 [6] was > 47.1 µM (inactive) and the EC50 [7] was > 53 µM (inactive).

With `Cc1ccccc1-n1c(CSC(=N)N)nc2ccccc2c1=O` the IC50 [6] was > 47.1 µM (inactive) and the EC50 [7] was > 53 µM (inactive).

For `CCCn1c(SCC#N)nc2c(c1=O)C1(CCCC1)Cc1ccccc1-2`, the AC50 [5] was 1.92 µM (active).

In the case of `O=C(CCn1nnc2ccccc21)N1CCN(c2ccccc2)CC1`, the IC50 [6] is reported as > 47.1 µM (inactive) and the EC50 [7] is reported as > 53 µM (inactive).

For `Clc1nc2ncnc-2c[nH]1`, the EC50 [8] was > 112 µM (not active) and the EC50 [9] was > 112 µM (not active).

For `Cc1ccc(N2CCN(C(=O)CN3C(=O)c4ccccc4C3=O)CC2)cc1`, the IC50 [6] was > 47.1 µM (inactive) and the EC50 [7] was > 53 µM (inactive).

For `O=Nc1c(O)n(Cc2ccc(Cl)c(Cl)c2)c2ccccc12`, the EC50 [4] was 76.8 µM (active), the AC50 [5] was 5.78 µM (active) and the AC50 (Cytochrome P450 1A2) was 20 µM (inconclusive). For the same molecule, the AC50 (Cytochrome P450 2D6) was 28.2 µM (inconclusive) and the EC50 [13] was 3.73 µM (active).

In the case of `CCn1c(SCC(=O)NC2CC2)nnc1-c1ccncc1`, the IC50 [6] is reported as > 47.1 µM (inactive) and the EC50 [7] is reported as > 53 µM (inactive).

With `CC(NCC(=O)Nc1ccccc1C(=O)NC1CC1)c1cccc(Cl)c1` (centres undefined) the IC50 [6] was > 47.1 µM (inactive) and the EC50 [7] was > 53 µM (inactive).

In the case of `COC(=O)COc1ccc(S(=O)(=O)NCc2cccnc2)cc1C`, the EC50 [8] is reported as 34.3 µM (active) and the EC50 [9] is reported as > 112 µM (not active).

For `CCCn1cc(S(=O)(=O)c2ccccc2)c(=O)c2cc(OCC)ccc21`, the IC50 [6] was > 47.1 µM (inactive) and the EC50 [7] was > 53 µM (inactive).

For `O=C(CSc1nc[nH]n1)Nc1cc(S(=O)(=O)N2CCCC2)ccc1Cl`, the IC50 [6] was > 47.1 µM (inactive) and the EC50 [7] was > 53 µM (inactive).

With `CN(C)c1ccc(/C=C(\Cl)c2nc3ccccc3s2)cc1` the AC50 [5] was 1.58 µM (active).

With `Cc1ccc(CNC(=O)C2CCCN(c3nn4c(=O)cc(C)nc4s3)C2)cc1` (centres undefined) the EC50 [8] was > 112 µM (not active) and the EC50 [9] was > 112 µM (not active).

With `COc1ccc(-c2cc(C(=O)N3CC4(C)CC3CC(C)(C)C4)no2)cc1OC` (centres undefined) the AC50 [5] was 1.75 µM (active).

For `O=C(Nc1cccc(O)c1)C(=O)Nc1ccccn1`, the EC50 [8] was 1.82 µM (active) and the EC50 [9] was 7.77 µM (active).

For `CCCCCCc1nnc(N)s1`, the EC50 [1] was > 120 µM (not active), the EC50 [2] was > 120 µM (not active) and the EC50 [3] was > 120 µM (not active).

For `COc1ccc(/C=N/OCC(=O)N2CC3(C)CC2CC(C)(C)C3)cc1` (centres undefined), the AC50 [5] was 11.5 µM (active).

For `O=C(c1ccco1)N1CCN(C(=O)c2ccc(COc3ccc(F)cc3)o2)CC1`, the EC50 [8] was > 112 µM (not active) and the EC50 [9] was > 112 µM (not active).

For `O=C(CC1(O)C(=O)Nc2ccccc21)c1ccccc1` (centres undefined), the EC50 [8] was > 112 µM (not active) and the EC50 [9] was > 112 µM (not active).

For `O=C(Nc1ccc(Cl)c(S(=O)(=O)N2CCOCC2)c1)c1ccccc1-c1ccc(C(F)(F)F)cc1`, the EC50 [1] was > 120 µM (not active), the EC50 [2] was 14.5 µM (active) and the EC50 [3] was > 120 µM (not active).

With `O=C(CN1CCN(c2ccccc2F)CC1)Nc1nnc(C(F)(F)F)s1` the EC50 [4] was > 150 µM (inactive) and the EC50 [13] was 0.366 µM (active).

For `CCOC(=O)C1CCCN(C(=O)CCNC(=O)Cn2ccc3ccccc3c2=O)C1` (centres undefined), the EC50 [1] was 104 µM (active), the EC50 [2] was > 120 µM (not active) and the EC50 [3] was > 120 µM (not active).

For `Cc1cccc(C(=O)Nc2ccc(C(=O)Nc3ccc(O)cc3)cc2)c1`, the AC50 [5] was 2.09 µM (active).

With `CCCn1c(=O)c(C(=O)NNS(=O)(=O)c2ccc(Cl)cc2)c(O)c2ccccc21` the AC50 [5] was 1.57 µM (active).

With `CSc1ccccc1C(=O)Nc1ncc(C)s1` the EC50 [8] was 65.8 µM (active) and the EC50 [9] was > 112 µM (not active).

In the case of `COc1ccc(-c2oc(=O)c3cc(OC)c(OC)cc3c2C#CC2(O)CCCCC2)cc1`, the IC50 [10] is reported as > 20 µM (inactive).
